Reference: PMC12656565, “In Vitro and Ultrastructural Evaluation of the Cytotoxic and Antileishmanial Activities of Thiosemicarbazone Compounds Against Promastigotes and Axenic Amastigotes of Leishmania infantum” (Tropical Medicine and Infectious Disease, 2025)
Peptide text beside a SMILES is read from it. * marks the point of attachment. Cbz = O=C(OCc1ccccc1)*

Tests used:
[1] = system: L. infantum promastigote cells; assay: Mitochondrial membrane potential (Rhodamine 123, flow cytometry); format: cell-based, Leishmania infantum
Method: To evaluate the effects of compounds on the mitochondrial membrane potential (ΔΨm) of Leishmania infantum, the cationic probe Rhodamine 123 (Rod 123) was used through quantitative flow cytometry analysis. […] After incubation, cells were centrifuged at 3000× g for 5 min, and supernatants discarded. […] Hydrogen peroxide (H2O2) at 1 μM was used as positive control, previously described in the literature as an inducer of mitochondrial potential loss. Cells were analyzed by flow cytometry on the FACSCalibur equipment (Becton & Dickinson, San José, CA, USA), with excitation at 488 nm and detection at 505/534 nm. Fifty thousand events per sample were acquired. Data were expressed as percentage of cells stained with Rhodamine 123 for each tested condition. Fluorescence variation was quantified by Variation Index (VI), calculated by the equation: VI = (MT − MC)/MC, where MT corresponds to the median fluorescence of treated cells and MC to the median of control cells (untreated).

[2] = system: Leishmania infantum promastigote forms (MHOM/BR/BH46); assay: In vitro leishmanicidal activity against promastigotes (Neubauer chamber counting); format: cell-based; conditions: for IC50 / inhibition at 20 µM: Leishmania infantum; for IC50: 72 h, L. infantum promastigotes, linear regression; for inhibition at 20 µM: lowest concentration tested in the promastigote series (20–400 µM)
Method: For this study, the Leishmania infantum strain MHOM/BR/BH46 was used. It was maintained by cryopreservation in liquid nitrogen, using a preservation solution containing 10% dimethyl sulfoxide (DMSO) and 90% fetal bovine serum (FBS). For the experiments, the strain was reactivated and maintained in continuous culture in modified Schneider’s Drosophila medium, supplemented with 10% heat-inactivated fetal bovine serum (FBS), at a temperature of 26 °C, with subcultures performed every 72 h. The promastigote form was used for the in vitro assays, with growth observed and monitored through parasite counting using a Neubauer chamber (iNCYTO CChip DHC-N01, Cheonan-Si, Republic of Korea).
The in vitro leishmanicidal activity of compounds LT-70, LT-73, LT-75, LT-89, and amphotericin B was determined as described by Aliança et al., with adaptations. Promastigote forms of L. infantum (MHOM/BR/BH46) were maintained in Schneider’s medium supplemented with 10% fetal bovine serum (FBS), incubated at 26 °C. For experiments, parasites were subcultured and grown for 72 h until reaching stationary phase. Subsequently, they were adjusted to a concentration of 1 × 10^6 parasites/mL. Cultures were then incubated in the presence of the tested compounds (20–400 µM) and Amphotericin B was tested from 0.01 to 1.0 µM in preliminary range-finding assays, confirming an IC50 of 0.04 µM, both prepared in DMSO (final DMSO concentration < 1%), as well as a control containing only the diluent. Analyses were performed in technical triplicate and biological duplicate. Cultures were maintained at 26 °C for 72 h, with daily parasite counts performed using a Neubauer chamber. The median inhibitory concentration (IC50) was determined after 72 h by linear regression using SPSS 25.0 software for Mac. All assays were performed in 24-well flat-bottom plates (2 mL final volume per well), with parasite inoculum verified by Neubauer counting chamber. The compounds LT-73 and LT-75 were selected based on their best leishmanicidal performance and respective selectivity index (SI), calculated as the ratio between the cytotoxic concentration for 50% of host cells (CC50) and the IC50 obtained for parasites. […] IC50 and CC50 values were obtained by linear regression using […]. This method has been validated in our previous thiosemicarbazone publications. Each assay was conducted in triplicate across two independent biological experiments performed on separate days to ensure reproducibility and minimize batch effects. MTT was selected for consistency with the validated thiosemicarbazone protocol by Jacob et al., ensuring methodological coherence with prior data.

J774.A1 macrophages = system: J774.A1 macrophages; parameters: method as in PMID 33590474; conditions: highest concentration tested 75 µM, previously determined in collaboration with Jacob et al., ref [20]; cited from earlier work
[3] = system: axenic amastigote forms of Leishmania amazonensis; parameters: method as in ref [22] Oliveira et al.; conditions: ref [22] Oliveira et al.; cited from earlier work
Leishmania infantum = system: Leishmania infantum; parameters: method as in PMID 35861942, PMID 14982775; conditions: against Leishmania infantum, similar in vitro conditions; ref [25],[29]; cited from earlier work

OO [Hydrogen Peroxide (H2O2), Hydrogen peroxide, reference compound]
Mean (Rho 123 fluorescence) ([1]; positive control, H2O2 at 1 μM): 581 ± 35 | Variation (Variation Index, VI = (MT − MC)/MC) ([1]; positive control, H2O2 at 1 μM): −0.18 ± 0.08 | Variability Index (VI), range ([1]; range over the tested concentrations (1× and 2× IC50; H2O2 control)): −0.018 to −0.73

N#Cc1ccc2[nH]cc(/C=N/NC(=S)Nc3ccccc3)c2c1 [LT-70]
IC50 [2]: < 20 µM | inhibition at 20 µM [2]: 100% | CC50 (J774.A1 macrophages): 64 ± 5 µM

C=CCNC(=S)N/N=C\c1c[nH]c2c(C)cccc12 [LT-89]
SI (CC50/IC50) ([2]; CC50 J774 macrophages / IC50 promastigotes): 4.3 | IC50 [2]: < 20 µM | inhibition at 20 µM [2]: 100% | CC50 (J774.A1 macrophages): 60 ± 4 µM

CC(C)[C@H](NC(=O)OCc1ccccc1)C(=O)N[C@H](C=O)Cc1ccccc1 [MDL28170] (Cbz-Val-Phe-aldehyde)
IC50 [3]: 13.5 µM

CCCCCCCCCCCCCCCCOP(=O)([O-])OCC[N+](C)(C)C [miltefosine]
IC50 (Leishmania infantum): 8 to 12 µM
